Data: patent US20260158011A1 (Achieve Life Sciences, Inc., priority 2023, published 2026)
Like-named read-outs stand apart in the source and are kept apart here.

Tested on: adults who smoked 10 cigarettes per day
Experimental: Safety was assessed by measurement of vital signs and participant self-report of adverse events and concomitant medications on day 2 and at weekly visits during treatment from week 1 to 12 and through an additional 12-week follow-up. Hematology and chemistry laboratory tests were done at weeks 1, 6, and 12. Electrocardiograms were done at weeks 6 and 12. Clinically significant adverse events or abnormalities were followed until resolution or end of study.
The study had two primary endpoints. […] Study success was defined as either primary endpoint meeting statistical criterion. The secondary outcome measures were verified continuous cigarette abstinence to week 24 (weeks 3 to 24 for Arms B vs. A; weeks 9 to 24 for Arms C vs. A). A third secondary outcome measure compared the risk of relapse to smoking between weeks 6 and 24 among participants assigned to cytisinicline who achieved abstinence by week 6; these individuals were either switched to placebo at week 6 (Arm B) or continued cytisinicline to week 12 (Arm C). Other pre-specified endpoints included comparing the difference between arms in verified 7-day point-prevalence abstinence at each visit from week 2 through week 24 and assessing for evidence of effect modification for subsets defined by baseline attributes. To assess cigarette craving between groups, the Brief Questionnaire of Smoking Urges (QSU-brief) was administered at clinic visits on Day 0 and at Weeks 1 to 6 (4, 5). Safety outcomes included the incidence of treatment-emergent serious and non-serious adverse events during treatment with cytisinicline or placebo and clinically-significant changes in vital signs, laboratory tests or electrocardiograms.
Analyses for the binary primary and secondary outcomes were based on exact analyses 2×2 tables stratified by clinical site. Missed assessments of primary and secondary endpoints were imputed as non-success, thereby enabling analyses following the intent-to-treat principle. The Hochberg procedure was used to control for multiplicity (6). A target sample of 750 participants (n=250 per arm) was computed and verified using simulations to provide 96% power for specifications of an overall one-sided 0.025 type I error probability and success probabilities of 7% for placebo and 19% for cytisinicline. Sensitivity analyses included assessments of effect modification related to subsets defined by baseline attributes using logistic and cumulative logit models. Longitudinal analyses used Mixed Model for Repeated Measures methodology (7). Safety analyses included all randomized participants who received at least one dose of study drug. Analyses were conducted by BB.

[1] = Arm B Cytisinicline 6 weeks + placebo 6 weeks, N = 269
[2] = Arm B Cytisinicline 6 weeks + placebo 6 weeks, of 459 events
[3] = Arm C Cytisinicline 12 weeks, N = 270
[4] = Arm C Cytisinicline 12 weeks, of 494 events

In the case of `O=c1cccc2n1C[C@@H]1CNC[C@H]2C1` [cytisine, (−)-Cytisine], the “Treatment-emergent adverse events reported” value (6-week cytisinicline arm) is reported as 172 (63.9%) participants (%), the “Treatment-emergent adverse events reported” value (12-week cytisinicline arm) is reported as 184 (68.2%) participants (%) and the “OR for serious adverse events, cytisinicline versus placebo” value (539 cytisinicline vs 270 placebo participants) is reported as 3.08. For the same molecule, the “Study drug discontinuation due to adverse events” value (“Study drug discontinuation due” below) (Arm B) was 2.6%, the “Number of treatment emergent adverse events” value [1] was 459 and the “Participants with Abnormal dreams (treatment-emergent adverse event), %” value [1] was 8.2%. The “Participants with Anxiety (treatment-emergent adverse event), %” value [1] was 2.6%, the “Participants with Constipation (treatment-emergent adverse event), %” value [1] was 5.9% and the “Participants with Diarrhea (treatment-emergent adverse event), %” value [1] was 3.7%. The “Participants with Headache (treatment-emergent adverse event), %” value [1] was 6.7%, the “Participants with Insomnia (treatment-emergent adverse event), %” value [1] was 8.6% and the “Participants with Nausea (treatment-emergent adverse event), %” value [1] was 5.9%. For the same molecule, the “Participants with any serious adverse event, %” value [1] was 3.7%, the “Participants with any treatment emergent adverse event, %” value [1] was 63.9% and the “Participants with any treatment-related serious adverse event, %” value [1] was 0%. For the same molecule, the “Treatment emergent adverse events, Mild, %” value [2] was 63.2%, the “Treatment emergent adverse events, Moderate, %” value [2] was 32.2% and the “Treatment emergent adverse events, Severe, %” value [2] was 4.6%. For the same molecule, the “Study drug discontinuation due” value (Arm C) was 3.7%, the “Number of treatment emergent adverse events” value [3] was 494 and the “Participants with Abnormal dreams (treatment-emergent adverse event), %” value [3] was 7.8%. The “Participants with Anxiety (treatment-emergent adverse event), %” value [3] was 5.6%, the “Participants with Constipation (treatment-emergent adverse event), %” value [3] was 4.8% and the “Participants with Diarrhea (treatment-emergent adverse event), %” value [3] was 4.4%. For the same molecule, the “Participants with Headache (treatment-emergent adverse event), %” value [3] was 7.8%, the “Participants with Insomnia (treatment-emergent adverse event), %” value [3] was 9.6% and the “Participants with Nausea (treatment-emergent adverse event), %” value [3] was 5.6%. The “Participants with any serious adverse event, %” value [3] was 3.0%, the “Participants with any treatment emergent adverse event, %” value [3] was 68.2% and the “Participants with any treatment-related serious adverse event, %” value [3] was 0%. For the same molecule, the “Treatment emergent adverse events, Mild, %” value [4] was 61.3%, the “Treatment emergent adverse events, Moderate, %” value [4] was 36.0% and the “Treatment emergent adverse events, Severe, %” value [4] was 2.6%. For the same molecule, the “Treatment-related SAEs” value (all arms) was “No SAE was judged to be treatment-related”, the “Serious adverse events (SAEs)” value (of 539 participants on cytisinicline) was 18 (3.3%) participants (%) and the “Study drug discontinuation due” value (of 539 participants receiving cytisinicline (Arms B and C)) was 17 (3.2%) participants (%).
